# Structures can show the parent of a compound that is named as a salt.
# Tests used:
# 4T1 breast cancer cells = experiment: Cell viability by CCK-8 method; assay type: cell-based, mouse; settings: 4T1 cells, doxorubicin 0.01-10.00 μg/mL, 48 h
# Protocol: [formula] • 5) collecting the nanobowls@Dox-liposomes at each time point by centrifugation (24000 g, 15 min) and determining the particle size and potential by DLS after redispersion. 1.2. […] Incubating the culture plate in a 37° C., 5% CO2 constant temperature cell incubator for 12 h; 2) preparing different nanoparticle structures in a serum-free culture medium with a drug concentration gradient to prepare a culture medium containing different concentrations of liquid medicine, sucking out the old culture medium in the culture plate, and then adding 200 μL of a new culture medium containing the liquid medicine to each well; • 3) placing the 96-well plate containing cells in a 37° C., 5% CO2 constant temperature cell incubator for culture for appropriate time; • 4) diluting CCK-8 liquid with serum-free culture medium by a factor of 10 according to 1:10, sucking out the old culture medium in the culture plate, and adding 100 μL culture medium containing CCK-8 into each well; • 5) incubating the culture plate in a 37° C., 5% CO2 constant temperature cell incubator for 0.5-1 h; • 6) determining the absorbance of each well with a microplate reader at a wavelength of 450 nm. […]
# 4T1 breast cancer = system: 4T1 breast cancer
# Protocol: • 1) 4T1 cell culture solution: DMEM basal medium, 1 penicillin streptomycin double antibody, 10% fetal bovine serum; • 2) 4% paraformaldehyde solution: with PBS (0.01 M) of pH 7.4 as the solvent, weighing 40 g of paraformaldehyde and placing into 800 mL of PBS solution, shaking and dissolving in a constant temperature shaker at 60° C. overnight; after the solid of paraformaldehyde is completely dissolved, stopping heating, balancing to room temperature, and adding PBS again to dilute the volume to 1 L; • 3) 1% sodium pentobarbital anesthetic: weighing 100 mg pentobarbital sodium, adding into 10 mL ultrapure water, and vortexing until it is fully dissolved. II. Experimental Method 1. Establishment of Orthotopic Inoculation Model for 4T1 Breast Cancer 1.1 Preparation of 4T1 Cell Suspension • 1) Taking a T-75 culture flask containing 4T1 cells, using a pipette to suck out the cell culture solution in the culture flask, and adding 5 mL of DPBS to rinse for 1-2 times to remove the residual culture solution; • 2) adding 2 mL of 0.25% trypsin, shaking the culture flask back and forth, so that the trypsin uniformly covers the bottom surface of the culture flask, and incubating in a constant temperature incubator containing 5% CO2 at 37° C. for 3 min; • 3) adding 10 mL serum-free cell culture medium, diluting trypsin and stop digestion; • 4) using a pipette to blow and beat the cell suspension to evenly disperse it to obtain a single cell suspension, taking 5 μL of cell suspension and adding placental blue dye solution with the same volume, and using an Invitrogen life countess cell counter to count the cells of cell suspension; • 5) centrifuging at 4° C. and 800 g for 5 min, discarding the supernatant, adding an appropriate amount of serum-free cell culture medium according to the intracellular concentration calculated previously, gently blowing and beating the cell block with a pipette to fully disperse it to prepare a single cell suspension, and the final concentration of cell suspension is: 1.6×10^7/mL; • 6) dispensing the 4T1 cell suspension into sterile 2 mL centrifuge tubes and storing at 4° C. until use. 1.2 BALB/c Female Mice Inoculated Orthotopically with 4T1 Cells • 1) On the day before inoculation, removing the hair on the right side of the abdomen of the mice to prepare the skin for the next day surgery; • 2) the next day, injecting the skin-prepared mice intraperitoneally with 1% pentobarbital anesthetic 100 μL; • 3)after complete anesthesia, fixing the limbs, wetting the right side of the abdomen with normal saline, and then using a scalpel to make a light incision on the abdomen; • 4) using tweezers to clamp out the 4th mammary fat pad located at the root of right thigh, and injecting 50 μL of 4T1 single cell suspension prepared above; • 5) loosening the tweezers, positioning the fat pad, and then suturing the abdominal wound; • 6) at the end of inoculation, returning the mice to their cages and the front leg of each mouse was taped with a label tape. 2. Animal Grouping and Dosing Regimen • 1) four days after inoculation, tumor volume was determined using vernier calipers: the longest and shortest diameters (L, W) of the tumor were measured every other day, and the tumor volume was calculated according to the following formula:
# [formula] • 2) after the tumor volume grew to 80 mm^3, it was evenly divided into the following 5 experimental groups according to the size of tumor volume: • (1) Saline group (Saline) • (2) Blank nanobowls@liposomes group (NB@LP) • (3) Doxorubicin hydrochloride group (Dox) • (4) Common Dox-liposome group (DLP) • (5) Nanobowls@Dox-liposome group (NB@DLP) • 3) On the 8th, 11th and 14th day after inoculation, the corresponding drugs were intravenously injected into the tail vein of each experimental group, and the corresponding drugs were administered to each group at a dose of 4 mg/kg of doxorubicin. 3.
# 4T1 tumor tissue = experiment: TUNEL and PCNA immunohistochemical staining of tumor tissue of 4T1 tumor-bearing mice; assay type: in vivo, mouse; settings: tumor tissue after treatment
# Text: (§1) [formula] • 2) after the tumor volume grew to 80 mm^3, it was evenly divided into the following 5 experimental groups according to the size of tumor volume: • (1) Saline group (Saline) • (2) Blank nanobowls@liposomes group (NB@LP) • (3) Doxorubicin hydrochloride group (Dox) • (4) Common Dox-liposome group (DLP) • (5) Nanobowls@Dox-liposome group (NB@DLP) • 3) On the 8th, 11th and 14th day after inoculation, the corresponding drugs were intravenously injected into the tail vein of each experimental group, and the corresponding drugs were administered to each group at a dose of 4 mg/kg of doxorubicin. 3. Monitoring of Mouse Body Weight and Tumor Volume • 1) determining body weight and tumor length and diameter every 2 days after the first dose of group, calculating tumor volume, and recording and summarizing all results; • 2) using GraphPad Prism 7.0 medical mapping software for data induction, statistical analysis, and making charts. 4. Immunohistochemical Staining of Tissue Sections • 1) after the last intravenous administration, selecting several mice in each experimental group, after sacrifice, dissecting and removing tumor tissues and important organs of mice, and fully immersing in 4% paraformaldehyde solution for fixation; • 2) during fixation, replacing fresh 4% paraformaldehyde solution several times to wash out residual blood. […]
# [1] = system: important organs of tumor-bearing mice; settings: mouse, in vivo
# Text: as §1
smiles,measurement,setting,value
"COc1cccc2c1C(=O)c1c(O)c3c(c(O)c1C2=O)C[C@@](O)(C(=O)CO)C[C@@H]3O[C@H]1C[C@H](N)[C@H](O)[C@H](C)O1 [Dox, doxorubicin hydrochloride]",effect on cell viability,4T1 breast cancer cells,significantly stronger than that of common Dox-liposomes and nanobowls@Dox-liposomes
same,tumor volume growth,"4T1 breast cancer; 4 mg/kg doxorubicin i.v. tail vein, days 0, 3 and 6",could not achieve the expected treatment of tumor
same,median survival time,4T1 breast cancer; 4T1 breast cancer mice,27 days
same,Median survival,"4T1 breast cancer; 4T1 breast cancer mice, 4 mg/kg doxorubicin i.v. x3",27 days
same,Prolong duration,4T1 breast cancer; median survival versus saline,3 days
same,Prolonged rate (%),4T1 breast cancer; median survival versus saline control,12.50%
same,body weight of mice during administration,"4T1 breast cancer; mouse, in vivo",significant decrease
same,prolongation of median survival time compared with the control group,4T1 breast cancer; versus saline control,3 days
same,effect of promoting tumor cell apoptosis (TUNEL) and inhibiting proliferation (PCNA),4T1 tumor tissue,worst effect
same,toxicity to the heart (pathological sections),[1],"more toxic to the heart, leading to the lysis and rupture of cardiomyocytes"
